Reference: patent US20100093756A1, “HETEROARYL SUBSTITUTED THIENO[2,3-d]PYRIMIDINE AND THEIR USE AS ADENOSINE A2a RECEPTOR ANTAGONISTS” (priority 2008, published 2010)
Where a name gives a salt, the structure may show the parent alone.

Experiments:
[1] = molecular target: T1, human adenosine A2a receptor (Homo sapiens, UniProt P29274); assay: Adenosine A2a Receptor Functional Assay (A2AGAL2); format: cell-based; conditions: CHO-K1 cells, cAMP inducible beta-galactosidase reporter, 15 nM NECA agonist challenge
T1 construct: expressed in transfected cells; host or cells: CHO-K1
T1 sequence (P29274 whole entry): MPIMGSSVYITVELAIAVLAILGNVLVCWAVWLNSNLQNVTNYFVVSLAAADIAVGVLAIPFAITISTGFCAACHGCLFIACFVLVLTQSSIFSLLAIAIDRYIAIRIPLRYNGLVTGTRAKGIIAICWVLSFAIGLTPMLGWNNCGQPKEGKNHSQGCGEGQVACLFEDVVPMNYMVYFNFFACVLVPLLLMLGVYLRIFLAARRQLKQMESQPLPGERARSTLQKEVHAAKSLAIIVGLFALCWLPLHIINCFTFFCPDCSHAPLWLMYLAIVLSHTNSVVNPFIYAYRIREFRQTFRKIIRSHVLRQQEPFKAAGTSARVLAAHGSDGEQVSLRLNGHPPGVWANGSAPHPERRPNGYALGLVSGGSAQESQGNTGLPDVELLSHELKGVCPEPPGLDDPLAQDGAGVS
Experimental: Adenosine A2a Receptor Functional Assay (A2AGAL2)
To initiate the functional assay, cryopreserved CHO-K1 cells overexpressing the human adenosine A2a receptor and containing a cAMP inducible beta-galactosidase reporter gene were thawed, centrifuged, DMSO containing media removed, and then seeded with fresh culture media into clear 384-well tissue culture treated plates (BD #353961) at a concentration of 10K cells/well. Prior to assay, these plates were cultured for two days at 37° C., 5% CO2, 90% Rh. On the day of the functional assay, culture media was removed and replaced with 45 uL assay medium (Hams/F-12 Modified (Mediatech #10-080CV) supplemented w/0.1% BSA). Test compounds were diluted and 11 point curves created at a 1000× concentration in 100% DMSO. Immediately after addition of assay media to the cell plates, 50 nL of the appropriate test compound antagonist or agonist control curves were added to cell plates using a Cartesian Hummingbird. Compound curves were allowed to incubate at room temperature on cell plates for approximately 15 minutes before addition of a 15 nM NECA (Sigma E2387) agonist challenge (5 uL volume). A control curve of NECA, a DMSO/Media control, and a single dose of Forskolin (Sigma F3917) were also included on each plate. After additions, cell plates were allowed to incubate at 37° C., 5% CO2, 90% Rh for 5.5-6 hours. After incubation, media was removed, and cell plates were washed 1×50 uL with DPBS w/o Ca & Mg (Mediatech 21-031-CV). Into dry wells, 20 uL of 1× Reporter Lysis Buffer (Promega E3971 (diluted in dH2O from 5× stock)) was added to each well and plates frozen at −20° C. overnight. For β-galactosidase enzyme colorimetric assay, plates were thawed out at room temperature and 20μL 2× assay buffer (Promega) was added to each well. Color was allowed to develop at 37° C., 5% CO2, 90% Rh for 1-1.5 h or until reasonable signal appeared. The calorimetric reaction was stopped with the addition of 60 μL/well 1M sodium carbonate. Plates were counted at 405 nm on a SpectraMax Microplate Reader (Molecular Devices). Data was analyzed in Microsoft Excel and IC/EC50 curves were fit using a standardized macro.

[2] = molecular target: T2, human adenosine A1 receptor (Homo sapiens, UniProt P30542); assay: Adenosine A1 Receptor Functional Assay (A1GAL2); format: cell-based; conditions: CHO-K1 cells, cAMP inducible beta-galactosidase reporter, 4 nM r-PIA/1 uM Forskolin agonist challenge
T2 construct: expressed in transfected cells; host or cells: CHO-K1
T2 sequence (P30542 1-326): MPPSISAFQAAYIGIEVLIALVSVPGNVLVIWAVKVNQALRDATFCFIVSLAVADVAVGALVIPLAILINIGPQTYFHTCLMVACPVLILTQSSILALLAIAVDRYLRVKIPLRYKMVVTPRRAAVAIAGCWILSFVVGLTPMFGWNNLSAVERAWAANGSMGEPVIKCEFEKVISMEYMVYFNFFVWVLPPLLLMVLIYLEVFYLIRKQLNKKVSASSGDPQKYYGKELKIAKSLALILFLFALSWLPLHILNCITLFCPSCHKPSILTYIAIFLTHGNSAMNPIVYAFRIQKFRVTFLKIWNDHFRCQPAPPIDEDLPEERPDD
Experimental: Adenosine A1 Receptor Functional Assay (A1GAL2)
To initiate the functional assay, cryopreserved CHO-K1 cells overexpressing the human adenosine A1 receptor and containing a cAMP inducible beta-galactosidase reporter gene were thawed, centrifuged, DMSO containing media removed, and then seeded with fresh culture media into clear 384-well tissue culture treated plates (BD #353961) at a concentration of 10K cells/well. Prior to assay, these plates were cultured for two days at 37° C., 5% CO2, 90% Rh. On the day of the functional assay, culture media was removed and replaced with 45 uL assay medium (Hams/F-12 Modified (Mediatech #10-080CV) supplemented w/0.1% BSA). Test compounds were diluted and 11 point curves created at a 1000× concentration in 100% DMSO. Immediately after addition of assay media to the cell plates, 50 nL of the appropriate test compound antagonist or agonist control curves were added to cell plates using a Cartesian Hummingbird. Compound curves were allowed to incubate at room temperature on cell plates for approximately 15 minutes before addition of a 4 nM r-PIA (Sigma P4532)/1 uM Forskolin (Sigma F3917) agonist challenge (5 uL volume). A control curve of r-PIA in 1 uM Forskolin, a DMSO/Media control, and a single dose of Forskolin were also included on each plate. After additions, cell plates were allowed to incubate at 37° C., 5% CO2, 90% Rh for 5.5-6 hours. After incubation, media was removed, and cell plates were washed 1×50 uL with DPBS w/o Ca & Mg (Mediatech 21-031-CV). Into dry wells, 20 uL of 1× Reporter Lysis Buffer (Promega E3971 (diluted in dH2O from 5× stock)) was added to each well and plates frozen at −20° C. overnight. For β-galactosidase enzyme colorimetric assay, plates were thawed out at room temperature and 20 μL 2× assay buffer (Promega) was added to each well. Color was allowed to develop at 37° C., 5% CO2, 90% Rh for 1-1.5 h or until reasonable signal appeared. The colorimetric reaction was stopped with the addition of 60 μL/well 1M sodium carbonate. Plates were counted at 405 nm on a SpectraMax Microplate Reader (Molecular Devices). Data was analyzed in Microsoft Excel and IC/EC50 curves were fit using a standardized macro.

[3] = molecular target: T3, human A2a adenosine receptor (Homo sapiens, UniProt P29274); assay: Ligand Binding Assay for Adenosine A2a Receptor (A2A-B); conditions: HEK293 cell plasma membrane, radioligand [3H]CGS21680
T3 construct: purchased PerkinElmer RB-HA2a; host or cells: HEK293 plasma membrane
T3 sequence (P29274 whole entry): as the sequence (P29274 whole entry) above
Experimental: Ligand Binding Assay for Adenosine A2a Receptor (A2A-B)
Ligand binding assay of adenosine A2a receptor was performed using plasma membrane of HEK293 cells containing human A2a adenosine receptor (PerkinElmer, RB-HA2a) and radioligand [^3H]CGS21680 (PerkinElmer, NET1021). Assay was set up in 96-well polypropylene plate in total volume of 200 μL by sequentially adding 20 μL 1:20 diluted membrane, 130 μL assay buffer (50 mM Tris.HCl, pH7.4 10 mM MgCl2, 1 mM EDTA) containing [^3H] CGS21680, 50 μL diluted compound (4×) or vehicle control in assay buffer. Nonspecific binding was determined by […] NECA. Reaction was carried out at room temperature for 2 hours before filtering through 96-well GF/C filter plate pre-soaked in 50 mM Tris.HCl, pH7.4 containing 0.3% polyethylenimine. Plates were then washed 5 times with cold 50 mM Tris.HCl, pH7.4, dried and sealed at the bottom. Microscintillation fluid 30 μL was added to each well and the top sealed. Plates were counted on Packard Topcount for [^3H]. Data was analyzed in Microsoft Excel and GraphPad Prism programs. (Varani, K.; Gessi, S.; Dalpiaz, A.; Borea, P. A. British Journal of Pharmacology, 1996, 117, 1693)

Row | Molecule | Ki [1] [nM] | Ki [2] [nM] | Ki [3] [nM]
1 | Nc1nc(-c2ccc(C(F)F)o2)nc2sc(Cc3ncccc3F)cc12 [Example 24, 2-(5-Difluoromethyl-furan-2-yl)-6-(3-fluoro-pyridin-2-ylmethyl)-thieno[2,3-d]pyrimidin-4-ylamine] | 6.21 | 92.6 | –
2 | Nc1nc(-c2ccc(C(F)F)o2)nc2sc(C(=O)c3ncccc3F)cc12 [Example 25, [4-Amino-2-(5-difluoromethyl-furan-2-yl)-thieno[2,3-d]pyrimidin-6-yl]-(3-fluoro-pyridin-2-yl)-methanone] | 24.9 | 838 | –
3 | Nc1nc(-c2ccc(C(F)F)o2)nc2sc(C(O)c3ncccc3O)cc12 (stereo not shown) [Example 34, 2-{[4-Amino-2-(5-difluoromethyl-furan-2-yl)-thieno[2,3-d]pyrimidin-6-yl]-hydroxy-methyl}-pyridin-3-ol] | 4.29 | 111 | –
4 | Nc1nc(-c2ccc(C3CC3)o2)nc2sc(Cc3cccnc3)cc12 [Example 19, 2-(5-Cyclopropyl-furan-2-yl)-6-pyridin-3-ylmethyl-thieno[2,3-d]pyrimidin-4-ylamine] | 409 | 579 | –
5 | Nc1nc(-c2ccc(C(F)F)o2)nc2sc(Cc3ccccn3)cc12 [Example 35, 2-(5-Difluoromethyl-furan-2-yl)-6-pyridin-2-ylmethyl-thieno[2,3-d]pyrimidin-4-ylamine] | 4.73 | 61.9 | –
6 | Nc1nc(-c2ccc(C(F)F)o2)nc2sc(Cc3ncccc3Br)cc12 [Example 33, 6-(3-Bromo-pyridin-2-ylmethyl)-2-(5-difluoromethyl-furan-2-yl)-thieno[2,3-d]pyrimidin-4-ylamine] | 2.18 | 21.2 | –
7 | Nc1nc(-c2ncco2)nc2sc(Cc3cccnc3)cc12 [Example 18, 2-Oxazol-2-yl-6-pyridin-3-ylmethyl-thieno[2,3-d]pyrimidin-4-ylamine] | 30 | 489 | –
8 | N#Cc1cccc(-c2nc(N)c3cc(Cc4cccnc4)sc3n2)n1 [Example 21, 6-(4-Amino-6-pyridin-3-ylmethyl-thieno[2,3-d]pyrimidin-2-yl)-pyridine-2-carbonitrile] | 5.25 | 28.2 | –
9 | Nc1nc(-c2ncco2)nc2sc(Cc3ccccn3)cc12 [Example 3, 2-Oxazol-2-yl-6-pyridin-2-ylmethyl-thieno[2,3-d]pyrimidin-4-ylamine hydrochloride] | 6.68 | 353 | –
10 | Cc1csc(-c2nc(N)c3cc(Cc4ccccn4)sc3n2)n1 [Example 17, 2-(4-Methyl-thiazol-2-yl)-6-pyridin-2-ylmethyl-thieno[2,3-d]pyrimidin-4-ylamine] | 7.09 | 100 | –
11 | 6-(6-Chloro-pyridin-3-ylmethyl)-2-(5-methyl-furan-2-yl)-thieno[2,3-d]pyrimidin-4-ylamine [Example 1] | 126 | 1590 | –
12 | Nc1nc(-c2ccc(C3CC3)o2)nc2sc(Cc3ccccn3)cc12 [Example 20, hydrochloride] | 130 | 337 | –
13 | CC(O)(c1cc2c(N)nc(-c3ccc(C(F)F)o3)nc2s1)c1ncccc1F (stereo not shown) [Example 30, 1-[4-Amino-2-(5-difluoromethyl-furan-2-yl)-thieno[2,3-d]pyrimidin-6-yl]-1-(3-fluoro-pyridin-2-yl)-ethanol] | 11.4 | 403 | 16.3
14 | Nc1nc(-c2ccc(C(F)F)o2)nc2sc(C(O)c3ncccc3Br)cc12 (stereo not shown) [Example 32, [4-Amino-2-(5-difluoromethyl-furan-2-yl)-thieno[2,3-d]pyrimidin-6-yl]-(3-bromo-pyridin-2-yl)-methanol] | 1.62 | 23.5 | –
15 | Nc1nc(-c2ccc(C(F)F)o2)nc2sc(C(O)c3ncccc3F)cc12 (stereo not shown) [Example 23, [4-Amino-2-(5-difluoromethyl-furan-2-yl)-thieno[2,3-d]pyrimidin-6-yl]-(3-fluoro-pyridin-2-yl)-methanol] | 3.77 | 59.5 | –
16 | Nc1nc(-c2cnco2)nc2sc(Cc3ccccn3)cc12 [Example 15, 2-Oxazol-5-yl-6-pyridin-2-ylmethyl-thieno[2,3-d]pyrimidin-4-ylamine] | 9.66 | 172 | –
17 | CC(O)(c1ccccn1)c1cc2c(N)nc(-c3ccc(C(F)F)o3)nc2s1 (stereo not shown) [Example 36, 1-[4-Amino-2-(5-difluoromethyl-furan-2-yl)-thieno[2,3-d]pyrimidin-6-yl]-1-pyridin-2-yl-ethanol] | 36 | 267 | –
18 | Nc1nc(-c2ccc(C(F)F)o2)nc2sc(C(O)c3ccccn3)cc12 (stereo not shown) [Example 31, [4-Amino-2-(5-difluoromethyl-furan-2-yl)-thieno[2,3-d]pyrimidin-6-yl]-pyridin-2-yl-methanol] | 4.82 | 46.9 | –
19 | COc1cccnc1Cc1cc2c(N)nc(-c3ccc(C(F)F)o3)nc2s1 [Example 37, 2-(5-Difluoromethyl-furan-2-yl)-6-(3-methoxy-pyridin-2-ylmethyl)-thieno[2,3-d]pyrimidin-4-ylamine] | 2.28 | 32.6 | –
20 | COc1cccnc1C(O)c1cc2c(N)nc(-c3ccc(C(F)F)o3)nc2s1 (stereo not shown) [Example 29, [4-Amino-2-(5-difluoromethyl-furan-2-yl)-thieno[2,3-d]pyrimidin-6-yl]-(3-methoxy-pyridin-2-yl)-methanol] | 2.39 | 24.9 | –
21 | Cc1ccc(-c2nc(N)c3cc(Cc4ccccn4)sc3n2)o1 [Example 16, 2-(5-Methyl-furan-2-yl)-6-pyridin-2-ylmethyl-thieno[2,3-d]pyrimidin-4-ylamine] | 1.18 | 29.9 | –
